We go through 39 compounds from ChEMBL document CHEMBL1139379, “Design, structure-activity relationships and in vivo characterization of 4-amino-3-benzimidazol-2-ylhydroquinolin-2-ones: a novel class of receptor tyrosine kinase inhibitors” (J Med Chem, 2009).

Some results are limits rather than exact numbers.

The target in test [1] is Fibroblast growth factor receptor 1 (Homo sapiens, UniProt P11362). Kind of test: Inhibition of human recombinant FGFR1.
Test [2] in a line: Inhibition of VEGF-mediated proliferation of HMVEC after 72 hrs. Type of test: functional, cell-based. Conditions: Homo sapiens.
For test [3], the target named is Vascular endothelial growth factor receptor 2 (Homo sapiens, UniProt P35968).
Sequence of Vascular endothelial growth factor receptor 2 (P35968 whole entry): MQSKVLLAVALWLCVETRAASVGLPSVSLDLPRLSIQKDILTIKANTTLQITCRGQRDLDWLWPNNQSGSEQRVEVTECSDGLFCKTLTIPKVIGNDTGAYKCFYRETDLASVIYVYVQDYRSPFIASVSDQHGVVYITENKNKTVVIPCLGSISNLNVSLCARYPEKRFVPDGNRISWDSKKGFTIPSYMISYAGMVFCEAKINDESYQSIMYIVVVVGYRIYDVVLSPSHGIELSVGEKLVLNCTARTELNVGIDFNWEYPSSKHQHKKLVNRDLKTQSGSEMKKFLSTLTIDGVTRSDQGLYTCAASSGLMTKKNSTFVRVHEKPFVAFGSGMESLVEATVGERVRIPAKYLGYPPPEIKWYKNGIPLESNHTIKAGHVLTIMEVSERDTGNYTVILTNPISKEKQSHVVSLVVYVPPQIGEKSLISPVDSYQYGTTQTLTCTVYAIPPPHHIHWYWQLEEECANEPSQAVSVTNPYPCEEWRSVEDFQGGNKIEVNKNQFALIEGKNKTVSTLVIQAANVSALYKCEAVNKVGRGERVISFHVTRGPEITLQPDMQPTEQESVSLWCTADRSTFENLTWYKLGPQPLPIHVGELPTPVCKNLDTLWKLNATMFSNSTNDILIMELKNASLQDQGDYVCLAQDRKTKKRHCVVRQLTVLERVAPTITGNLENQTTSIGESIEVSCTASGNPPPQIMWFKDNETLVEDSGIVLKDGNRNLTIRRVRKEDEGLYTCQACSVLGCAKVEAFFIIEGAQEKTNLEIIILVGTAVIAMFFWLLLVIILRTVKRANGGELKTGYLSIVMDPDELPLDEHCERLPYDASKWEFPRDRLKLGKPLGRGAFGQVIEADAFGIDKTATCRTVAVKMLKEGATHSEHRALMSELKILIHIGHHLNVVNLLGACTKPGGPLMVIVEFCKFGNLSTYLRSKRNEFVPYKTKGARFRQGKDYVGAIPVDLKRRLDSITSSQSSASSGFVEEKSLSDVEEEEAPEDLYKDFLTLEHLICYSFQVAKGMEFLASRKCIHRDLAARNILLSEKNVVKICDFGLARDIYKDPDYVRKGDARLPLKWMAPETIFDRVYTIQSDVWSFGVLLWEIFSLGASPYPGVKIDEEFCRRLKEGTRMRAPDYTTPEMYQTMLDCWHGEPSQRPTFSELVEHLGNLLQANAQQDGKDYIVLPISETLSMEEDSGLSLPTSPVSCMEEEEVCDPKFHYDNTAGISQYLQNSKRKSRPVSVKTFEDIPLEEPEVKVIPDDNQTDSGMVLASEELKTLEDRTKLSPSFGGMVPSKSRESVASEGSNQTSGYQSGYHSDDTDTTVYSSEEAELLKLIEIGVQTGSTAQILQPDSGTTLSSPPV
For test [4], the target named is Platelet-derived growth factor receptor beta (Homo sapiens, UniProt P09619). Kind of test: Inhibition of human recombinant PDGFRbeta.
Sequence of Platelet-derived growth factor receptor beta (P09619 whole entry): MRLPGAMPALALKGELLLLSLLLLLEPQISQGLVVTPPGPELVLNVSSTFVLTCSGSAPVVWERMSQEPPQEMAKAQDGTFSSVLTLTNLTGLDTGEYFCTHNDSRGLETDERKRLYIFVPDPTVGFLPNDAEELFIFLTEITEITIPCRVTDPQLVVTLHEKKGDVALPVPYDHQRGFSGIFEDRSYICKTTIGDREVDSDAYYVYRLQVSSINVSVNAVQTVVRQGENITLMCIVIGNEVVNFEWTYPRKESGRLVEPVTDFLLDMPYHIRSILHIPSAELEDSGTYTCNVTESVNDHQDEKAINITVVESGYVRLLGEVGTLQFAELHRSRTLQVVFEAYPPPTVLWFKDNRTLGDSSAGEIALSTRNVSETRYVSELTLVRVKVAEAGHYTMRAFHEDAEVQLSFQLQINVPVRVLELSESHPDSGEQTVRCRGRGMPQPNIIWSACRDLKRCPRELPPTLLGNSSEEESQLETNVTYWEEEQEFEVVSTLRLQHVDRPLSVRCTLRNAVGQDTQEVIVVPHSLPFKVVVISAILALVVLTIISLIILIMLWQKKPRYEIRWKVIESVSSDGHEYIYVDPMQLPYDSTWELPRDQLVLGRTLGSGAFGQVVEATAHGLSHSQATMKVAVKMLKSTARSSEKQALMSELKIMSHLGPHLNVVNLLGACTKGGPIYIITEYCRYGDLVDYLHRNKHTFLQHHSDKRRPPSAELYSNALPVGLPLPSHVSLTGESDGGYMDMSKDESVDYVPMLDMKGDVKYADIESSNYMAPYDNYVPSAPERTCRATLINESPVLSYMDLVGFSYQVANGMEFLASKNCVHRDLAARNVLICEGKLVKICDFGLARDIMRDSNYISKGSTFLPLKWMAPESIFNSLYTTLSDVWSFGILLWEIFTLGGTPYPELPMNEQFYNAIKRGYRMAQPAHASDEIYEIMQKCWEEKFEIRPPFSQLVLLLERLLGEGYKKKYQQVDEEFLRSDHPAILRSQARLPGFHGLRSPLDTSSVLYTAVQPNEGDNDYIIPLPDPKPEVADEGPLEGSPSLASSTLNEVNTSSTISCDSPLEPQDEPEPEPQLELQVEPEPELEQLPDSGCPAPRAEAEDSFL

Sequence of Fibroblast growth factor receptor 1 (P11362 whole entry): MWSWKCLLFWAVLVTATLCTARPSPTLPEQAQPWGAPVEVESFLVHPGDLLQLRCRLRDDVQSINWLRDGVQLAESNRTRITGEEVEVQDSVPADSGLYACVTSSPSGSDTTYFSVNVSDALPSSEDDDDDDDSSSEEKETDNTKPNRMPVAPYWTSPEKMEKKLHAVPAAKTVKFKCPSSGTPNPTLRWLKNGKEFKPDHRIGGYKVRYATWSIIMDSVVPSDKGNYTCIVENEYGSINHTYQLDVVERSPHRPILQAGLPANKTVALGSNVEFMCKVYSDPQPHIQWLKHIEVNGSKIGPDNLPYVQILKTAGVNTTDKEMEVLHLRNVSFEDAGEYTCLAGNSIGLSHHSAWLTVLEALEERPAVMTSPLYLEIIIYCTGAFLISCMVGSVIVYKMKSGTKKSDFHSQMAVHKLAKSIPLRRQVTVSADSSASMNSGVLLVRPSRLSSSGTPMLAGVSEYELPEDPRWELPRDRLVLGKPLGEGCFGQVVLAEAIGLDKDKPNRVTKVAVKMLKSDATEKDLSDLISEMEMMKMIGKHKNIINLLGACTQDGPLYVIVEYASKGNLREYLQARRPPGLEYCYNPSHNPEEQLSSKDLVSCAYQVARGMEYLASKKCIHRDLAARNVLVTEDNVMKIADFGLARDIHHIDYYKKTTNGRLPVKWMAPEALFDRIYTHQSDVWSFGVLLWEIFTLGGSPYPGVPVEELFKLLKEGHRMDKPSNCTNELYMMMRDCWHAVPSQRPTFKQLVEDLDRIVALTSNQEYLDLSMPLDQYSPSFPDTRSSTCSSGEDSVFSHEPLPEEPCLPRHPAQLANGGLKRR

As for `O=c1[nH]c2ccccc2c(NCC2CCNCC2)c1-c1nc2ccccc2[nH]1`, the IC50 in test [1] came out at 550 nM; in test [3], 940 nM; in test [4], 0.9 nM. Also, the EC50 in test [2] was found to be 100 nM.

As for `CN1CCN(c2ccc3nc(-c4c(N)c5cc(F)ccc5[nH]c4=O)[nH]c3c2)CC1`, the figures for the IC50 in test [1], in test [3] and in test [4] were 40 nM, 78 nM and 1 nM, respectively. In test [2], this compound came in with an EC50 of 10 nM.

With `CN1CCN(c2ccc3[nH]c(-c4c(N)c5c(F)cc(F)cc5[nH]c4=O)nc3c2)CC1`, the IC50 in test [1] turned out to be 30 nM; in test [3] it was 130 nM; in test [4], 5 nM. The EC50 in test [2] came out at 80 nM.

For the compound `Cn1c(=O)c(-c2nc3ccccc3[nH]2)c(O)c2ccccc21`, the IC50 in test [1] is more than 25000 nM; in test [3], 5800 nM; in test [4] it was 19000 nM. Further, a half-maximal response in test [2] (EC50) required 4600 nM.

`CN1CCN(c2ccc3nc(-c4c(N)c5ccc(F)cc5[nH]c4=O)[nH]c3c2)CC1`: the IC50 was found to be 3 nM in test [1], 14 nM in test [3] and 0.4 nM in test [4]. This compound showed a concentration for a half-maximal effect (EC50) in test [2] of 34 nM.

As for `CN1CCN(c2ccc3[nH]c(-c4c(N)c5c(Cl)cccc5[nH]c4=O)nc3c2)CC1`, the values for the half-maximal inhibitory concentration (IC50) in test [1], in test [3] and in test [4] were 2 nM, 14 nM and 0.3 nM, respectively. The compound also returned an EC50 in test [2] of 12 nM.

Take `Nc1c(-c2nc3ccccc3[nH]2)c(=O)[nH]c2ccccc12`: the figures for the IC50 in test [1], in test [3] and in test [4] were 30 nM, 58 nM and 10 nM, respectively. In test [2], this compound showed an EC50 of 78 nM.

As to `CN(C)[C@H]1CCN(c2ccc3[nH]c(-c4c(N)c5ccccc5[nH]c4=O)nc3c2)C1`, the IC50 is 20 nM in test [1], 60 nM in test [3] and 4 nM in test [4]. The compound further had an EC50 in test [2] of 42 nM.

For `CN(C)c1c(-c2nc3ccccc3[nH]2)c(=O)[nH]c2ccccc12`, the IC50 in test [1] is 390 nM; in test [3], 860 nM; in test [4] it was 70 nM. Besides, the EC50 in test [2] was more than 10000 nM.

As to `CN1CCCN(c2ccc3[nH]c(-c4c(N)c5ccccc5[nH]c4=O)nc3c2)CC1`, the results for the IC50 in test [1], in test [3] and in test [4] were 20 nM, 66 nM and 5 nM, respectively. The compound also yielded an EC50 in test [2] of 25 nM.

For the compound `CNc1c(-c2nc3ccccc3[nH]2)c(=O)[nH]c2ccccc12`, the IC50 in test [1] came to 120 nM; in test [3], 220 nM; in test [4], 30 nM. In test [2], this compound yielded an EC50 of 280 nM.

Regarding `CNc1ccc2c(N)c(-c3nc4ccc(N5CCN(C)CC5)cc4[nH]3)c(=O)[nH]c2c1`, the half-inhibitory concentration (IC50) in test [1] is 370 nM; in test [3], 1000 nM; in test [4], 9 nM. Besides, the midpoint of the response in test [2], the EC50, lay at 270 nM.

On to `CN1CCCC(Oc2cccc3[nH]c(=O)c(-c4nc5ccccc5[nH]4)c(N)c23)C1` (configuration not stated), for which the values for the IC50 in test [1], in test [3] and in test [4] were 1 nM, 5 nM and 0.1 nM, respectively. In test [2], this compound returned an EC50 of 10 nM.

For `CCC1CCN(C)C(Nc2c(-c3nc4ccccc4[nH]3)c(=O)[nH]c3ccccc23)C1` (configuration not stated), the IC50 in test [1] came to 190 nM; in test [3], 170 nM; in test [4] it was 0.2 nM. In test [2], this compound displayed an EC50 of 72 nM.

Regarding `CN1CCN(c2cccc3[nH]c(=O)c(-c4nc5ccccc5[nH]4)c(N)c23)CC1`, the IC50 in test [1] stood at 1 nM; in test [3], 17 nM; in test [4] it was 0.3 nM. Further, a half-maximal effect in test [2] (EC50) was put at 340 nM.

Regarding `Cc1cc2nc(-c3c(N)c4ccccc4[nH]c3=O)[nH]c2cc1C`, the half-maximal inhibitory concentration (IC50) in test [1] came out at 70 nM; in test [3], 210 nM; in test [4] it was 12 nM. The response in test [2] was half-maximal at 150 nM (EC50).

For the compound `CN1CCN(C(=O)c2ccc3[nH]c(-c4c(N)c5ccccc5[nH]c4=O)nc3c2)CC1`, the figures for the IC50 in test [1], in test [3] and in test [4] were 10 nM, 26 nM and 0.9 nM, respectively. In test [2], this compound showed an EC50 of 45 nM.

In the case of `CNc1cccc2[nH]c(=O)c(-c3nc4ccc(N5CCN(C)CC5)cc4[nH]3)c(N)c12`, the IC50 in test [1] was found to be 15 nM; in test [3], 53 nM; in test [4] it was 2 nM. In addition, the EC50 in test [2] was found to be 17 nM.

Turning to `CN1CCN(c2ccc3nc(-c4c(N)c5cc(C(=O)NCc6ccccc6)ccc5[nH]c4=O)[nH]c3c2)CC1`, the values for the concentration for half-maximal inhibition (IC50) in test [1], in test [3] and in test [4] were 10 nM, 50 nM and 0.1 nM, respectively. Further, the response in test [2] was half-maximal at 120 nM (EC50).

In the case of `Cc1cccc2[nH]c(=O)c(-c3nc4ccc(N5CCN(C)CC5)cc4[nH]3)c(N)c12`, the IC50 is 3 nM in test [1], 12 nM in test [3] and 0.7 nM in test [4]. In test [2], the concentration for a half-maximal effect (EC50) came to 5 nM.

Turning to `O=c1[nH]c2ccccc2cc1-c1nc2ccccc2[nH]1`, the results for the IC50 in test [1], in test [3] and in test [4] were 390 nM, 1700 nM and 70 nM, respectively. Moreover, a half-maximal effect in test [2] (EC50) was put at 240 nM.

`Cc1ccc2nc(-c3c(N)c4ccccc4[nH]c3=O)[nH]c2c1`: the figures for the IC50 in test [1], in test [3] and in test [4] were 80 nM, 220 nM and 30 nM, respectively. Moreover, the EC50 in test [2] stood at 64 nM.

`CN1CCN(Cc2ccc3[nH]c(-c4c(N)c5ccccc5[nH]c4=O)nc3c2)CC1`: the IC50 in test [1] amounted to 9 nM; in test [4], 2 nM.

With `CN1CCN(c2ccc3nc(-c4c(N)c5cc(NCc6ccccc6)ccc5[nH]c4=O)[nH]c3c2)CC1`, the concentration for half-maximal inhibition (IC50) came to 8 nM in test [1], 21 nM in test [3] and 0.6 nM in test [4]. The EC50 in test [2] is 1100 nM.

On to `CN1CCN(c2ccc3nc(-c4c(N)c5cc(N)ccc5[nH]c4=O)[nH]c3c2)CC1`, for which the IC50 is 7 nM in test [1], 19 nM in test [3] and 7 nM in test [4]. It took 17 nM to reach a half-maximal effect in test [2] (EC50).

Consider `CN1CCN(c2ccc3[nH]c(=O)c(-c4nc5ccccc5[nH]4)c(N)c3c2)CC1`, for which the IC50 in test [1] came to 4100 nM; in test [3], 6500 nM; in test [4] it was 130 nM.

As to `CN1CCN(c2ccc3[nH]c(-c4c(N)c5cc(NC(=O)c6ccccc6)ccc5[nH]c4=O)nc3c2)CC1`, the IC50 turned out to be 900 nM in test [1], 980 nM in test [3] and 39 nM in test [4].

Regarding `Cn1c(-c2c(O)c3ccccc3[nH]c2=O)nc2ccccc21`, the IC50 was 7900 nM in test [1], more than 25000 nM in test [3] and 1100 nM in test [4]. The compound further registered a half-maximal effective concentration (EC50) in test [2] of more than 10000 nM.

As for `Nc1c(-c2nc3cc(N4CCOCC4)ccc3[nH]2)c(=O)[nH]c2ccccc12`, the IC50 in test [1] was 30 nM; in test [3], 57 nM; in test [4] it was 5 nM. In test [2], this compound gave an EC50 of 51 nM.

For `Cn1c(-c2c(O)c3ccccc3n(C)c2=O)nc2ccccc21`, the IC50 in test [1], in test [3] and in test [4] was more than 25000 nM in each case. Besides, the concentration giving a half-maximal response (EC50) in test [2] is more than 10000 nM.

Turning to `Nc1c(-c2nc3ccc(OCCN4CCOCC4)cc3[nH]2)c(=O)[nH]c2ccccc12`, the IC50 in test [1] came out at 20 nM; in test [3] it was 66 nM; in test [4], 5 nM. Further, in test [2], a half-maximal response (EC50) required 37 nM.

As to `CN1CCN(c2ccc3[nH]c(-c4c(N)c5cc(Cl)ccc5[nH]c4=O)nc3c2)CC1`, the results for the IC50 in test [1], in test [3] and in test [4] were 24 nM, 43 nM and 8 nM, respectively. The compound also displayed an EC50 in test [2] of 39 nM.

For `CN1CCN(c2ccc3[nH]c(-c4c(N)c5cccc(F)c5[nH]c4=O)nc3c2)CC1`, the IC50 in test [1] is 190 nM; in test [3], 560 nM; in test [4], 14 nM. This compound had an EC50 in test [2] of 420 nM.

Consider `O=c1[nH]c2ccccc2c(O)c1-c1nc2ccccc2[nH]1`, for which the IC50 in test [1] amounted to 90 nM; in test [3] it was 240 nM; in test [4], 20 nM. The compound further yielded an EC50 in test [2] of 420 nM.

For the compound `CN(C)CC(=O)N(C)c1ccc2[nH]c(-c3c(N)c4ccccc4[nH]c3=O)nc2c1`, the results for the half-maximal inhibitory concentration (IC50) in test [1], in test [3] and in test [4] were 3 nM, 29 nM and 1 nM, respectively. The compound further registered an EC50 in test [2] of 24 nM.

As for `CN1CCN(c2ccc3[nH]c(-c4c(N)c5ccccc5[nH]c4=O)nc3c2)CC1`, the IC50 in test [1] was 9 nM; in test [3], 42 nM; in test [4] it was 2 nM. The compound further showed an EC50 in test [2] of 19 nM.

Regarding `CN1CCN(c2ccc3nc(-c4c(N)c5cc(F)c(N(C)C)cc5[nH]c4=O)[nH]c3c2)CC1`, the results for the IC50 in test [1], in test [3] and in test [4] were 1800 nM, 5300 nM and 30 nM, respectively. Moreover, the EC50 in test [2] was determined as 3300 nM.

For the compound `CN1CCN(c2ccc3[nH]c(-c4c(N)c5cc(F)c(F)cc5[nH]c4=O)nc3c2)CC1`, the results for the half-inhibitory concentration (IC50) in test [1], in test [3] and in test [4] were 110 nM, 190 nM and 3 nM, respectively. Moreover, in test [2], a half-maximal response (EC50) required 480 nM.

Consider `CN1CCN(c2ccc3[nH]c(-c4c(N)c5cc(N(C)C)ccc5[nH]c4=O)nc3c2)CC1`, for which the IC50 came out at 83 nM in test [1], 160 nM in test [3] and 7 nM in test [4]. Further, the concentration for a half-maximal effect (EC50) in test [2] is 2000 nM.

In general, IC50 refers to the concentration at which inhibition is half-maximal. One may read the EC50 as the concentration that produces a half-maximal response. A high value points to a less potent agent.
